Laboratory results: patent EP0012271A1, “Prednisone derivatives, process for their production and pharmaceutical preparations containing these compounds” (SCHERING AKTIENGESELLSCHAFT, priority 1978, dated 1980)

Tests used:
Vasokonstriktion = test: Topical anti-inflammatory activity: vasoconstriction test on tape-stripped back skin of healthy volunteers, visual grading 1-5 compared with DFV; format: in vivo, gesunden Probanden; conditions: Konz. der Salbe, mean of 8 volunteers, positive = better than DFV, negative = worse
Text: (§1) Die Prednison-Derivate der allgemeinen Formel I gemäß Anspruch 1 zeichnen sich gegenüber dem in handelsüblichen pharmazeutischen Präparate befindlichen, strukturanalogen Kortikoid 17α-Butyryloxy-21-chlor-9α-fluor-16β-methyl- l,4-pregnadien-3,11,20-trion durch eine günstigere Dissoziation zwischen erwünschter topischer antiinflammatorischer Wirksamkeit und unerwünschter systemischer Nebenwirkung aus, wie folgende pharmakologische Untersuchungen zeigen: • a) Ermittlung der topischen antiinflammatorischen Wirksamkeit: Die Untersuchungen werden an je 8 gesunden Probanden beider Geschlechter durchgeführt, die in den letzten zwei Wochen keine lokale Corticosteroidbehandlung erhalten hatten. Nach dem Entfernen des Stratum corneum bis zum Stratum lucidum auf dem Rücken der Probanden (20 - 40 Tesafilm-Abrisse) werden je o,l g der Zubereitung auf 4 cm^2 große Felder ohne Okklusionsverband aufgetragen. Um zu vermeiden, daß die gleiche Zubereitung jeweils auf identische Hautreale appliziert wird, wird in rotierender Folge aufgetragen. […]

Pfotenödems = test: Undesired systemic activity: Mycobacterium butyricum-induced paw oedema in rats, oral administration; format: in vivo, SPF-Ratten; conditions: Rattus norvegicus, dose giving 50% reduction of paw oedema volume, measured 24 h after dosing, higher value = less undesired systemic effect, read-out: Systemische Wirksamkeit ED50
Text: as §1

## CCCC(=O)O[C@]1(C(=O)CCl)CC[C@H]2[C@@H]3CCC4=CC(=O)C=C[C@]4(C)[C@@]3(F)C(=O)C[C@@]21C [Nr. 3, 17α-Butyryloxy-21-chlor-9α-fluor-1,4-pregnadien-3,11,20-trion]
Vasokonstriktion; Beobachtungszeit 4 h
  Topische Wirksamkeit, Wirkungsgrad DFV - Wirkungsgrad Substanz: -0,1
Vasokonstriktion; Beobachtungszeit 8 h
  Topische Wirksamkeit, Wirkungsgrad DFV - Wirkungsgrad Substanz: 0,0
Pfotenödems
  ED50: 30 mg/kg
